Measurements as given in patent US10030016B2 (Sunesis Pharmaceuticals, Inc., priority 2009, dated 2018).
Structures can show the parent of a compound that is named as a salt. Where two headings read alike, the source gives them in different places.

Experiments:
PDK1 = PDK1 (Homo sapiens (Human), UniProt O15530); assay: PDK1 kinase assay (coupled PDK1/AKT/FAM-crosstide assay, IMAP fluorescence polarization); format: biochemical
Method in brief: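 GST-tagged human PDK1 (aa 51-359, 0.75 nM) from insect cells activated unphosphorylated GST-AKT2 (aa 140-467–PIFtide fusion, 10 nM), which phosphorylated 100 nM FAM-crosstide; 40 μM ATP, pH 7.2 Tris/MgCl2, 30 min at 25° C. IMAP fluorescence polarization read-out; ΔmP versus compound concentration fitted with a 4-parameter curve.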

[1] = test system: phospho-akt (Thr308) in PC-3 cells; assay: Inhibition of phospho-akt (Thr308) in PC-3 cells, MSD phospho-akt 308 ELISA kit; format: cell-based; conditions: Homo sapiens, 2 hours, no serum, read-out: EC50
Method in brief: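 PC-3 cells were seeded overnight in growth medium with 10% FBS, then exposed to compound serially diluted threefold in serum-free medium for 2 hours. Lysates were captured overnight at 4 degrees on MSD plates and phospho-Akt Thr308 was detected electrochemiluminescently, against DMSO high and 5 μM wortmannin low controls.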

[2] = inhibition of P308 Akt in PC-3 cells using MSD
[3] = inhibition of phospo-PDK1 in vitro
[4] = inhibition of P308 Akt in PC-3 cells, MSD

Chain of PDK1 (O15530 51-359): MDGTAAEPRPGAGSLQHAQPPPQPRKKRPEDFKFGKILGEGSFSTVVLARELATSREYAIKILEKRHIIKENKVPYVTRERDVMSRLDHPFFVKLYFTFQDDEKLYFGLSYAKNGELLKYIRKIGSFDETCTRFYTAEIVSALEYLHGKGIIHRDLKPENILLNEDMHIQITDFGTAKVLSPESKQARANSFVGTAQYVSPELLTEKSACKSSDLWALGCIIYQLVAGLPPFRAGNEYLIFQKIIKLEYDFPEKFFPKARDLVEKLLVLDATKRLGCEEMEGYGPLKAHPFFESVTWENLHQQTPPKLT

Row | Structure (SMILES) | IC50 (PDK1; inhibition of PDK1 in vitro) [µM] | EC50 [1, 2] [µM] | IC50 (PDK1; [3]) [µM] | EC50 [1, 4] [µM] | further results
1 | C[C@H](NC(=O)c1cc(C#N)cnc1NCc1ccc(-c2cnc(N)c(C(=O)NCCN3CCOCC3)c2)cc1)c1ccc(F)cc1 [Example 202, (S)-2-amino-5-(4-((5-cyano-3-(1-(4-fluorophenyl)ethylcarbamoyl)pyridin-2-ylamino)methyl)phenyl)-N-(2-morpholinoethyl) nicotinamide] | < 0.1 | 1 to 10 |  |  | 
2 | CNc1ccc(-c2ccc(CNc3ncc(C#N)cc3C(=O)N[C@@H](C)c3ccc(F)cc3)cc2)cn1 [Example 141] | < 0.1 | 1 to 10 |  |  | 
3 | C[C@H](NC(=O)c1cnccc1NCc1ccc(-c2ccc3ncnc(N)c3c2)s1)c1ccc(F)c(F)c1 [Example 3.86] |  |  | 1 to 5 | > 10 | 
4 | Nc1n[nH]c2ncc(-c3ccc(CNc4ncc(C(F)(F)F)cc4C(=O)Nc4ccc(F)cn4)cc3)cc12 [Example 59, 2-(4-(3-amino-1H-pyrazolo[3,4-b]pyridin-5-yl)benzylamino)-N-(5-fluoropyridin-2-yl)-5-(trifluoromethyl)nicotinamide] | < 0.1 | < 1 |  |  | 
5 | Nc1ncnc2ccc(-c3ccc(CNc4nccnc4C(=O)Nc4ccc(F)c(F)c4)s3)cc12 [Example 3.72, 3-({[5-(4-aminoquinazolin-6-yl)thiophen-2-yl]methyl}amino)-N-(3,4-difluorophenyl)pyrazine-2-carboxamide (TFA salt)] |  |  | > 5 | > 10 | 
6 | Nc1ncc(-c2ccc(CNc3ncc(C(F)(F)F)cc3C(=O)Nc3ccc(F)cc3)cc2)nc1O[C@H]1CCNC1 [Example 163, 2-{4-[5-Amino-6-((S)-pyrrolidin-3-yloxy)-pyrazin-2-yl]-benzylamino}-N-(4-fluoro-phenyl)-5-trifluoromethyl-nicotinamide] | < 0.1 | < 1 |  |  | 
7 | O=C(NCc1ccc(F)c(F)c1)c1cc(C(F)(F)F)cnc1N[C@@H](COc1ccc2[nH]c(=O)[nH]c2c1)c1ccccc1 [Example 16.4, (R)-N-(3,4-difluorobenzyl)-2-(2-(2-oxo-2,3-dihydro-1H-benzo[d]imidazol-5-yloxy)-1-phenylethylamino)-5-(trifluoromethyl)nicotinamide] |  |  | 1 to 5 |  | EC50 ([1]; PC-3, 2 h, inhibition of P308 Akt in PC-3 cells, MSD): 1 to 10 µM
8 | C[C@H](NC(=O)c1nc(C#N)cnc1NCc1ccc(-c2cn(CCCN(C)C)c3ncnc(N)c23)cc1)c1ccc(F)c(F)c1 [Example 316, (S)-3-(4-(4-amino-7-(3-(dimethylamino)propyl)-7H-pyrrolo[2,3-d]pyrimidin-5-yl)benzylamino)-6-cyano-N-(1-(3,4-difluoro-phenyl)ethyl)pyrazine-2-carboxamide] | < 0.1 | 1 to 10 |  |  | 
9 | CN(C)CCCNS(=O)(=O)c1cnc(NCc2ccc(-c3ccc4ncnc(N)c4c3)s2)c(C(=O)NCc2ccc(F)c(F)c2)c1 [Example 8.6.14, 2-(((5-(4-aminoquinazolin-6-yl)thiophen-2-yl)methyl)amino)-N-(3,4-difluorobenzyl)-5-(N-(3-(dimethylamino)propyl)sulfamoyl) nicotinamide] |  |  | < 0.1 | > 10 | 
10 | C[C@H](NC(=O)c1cccnc1NCc1ccc(-c2ccc3ncnc(NC4COC4)c3c2)s1)c1ccc(F)c(F)c1 [Example 4.35] |  |  | < 0.1 | 1 to 10 | 
11 | Nc1ncnc2ccc(-c3ccc(CNc4ncc(S(=O)(=O)NCc5ccccc5)cc4C(=O)NCc4ccc(F)c(F)c4)s3)cc12 [Example 8.6.7, 2-(((5-(4-aminoquinazolin-6-yl)thiophen-2-yl)methyl)amino)-5-(N-benzylsulfamoyl)-N-(3,4-difluorobenzyl) nicotinamide] |  |  | 0.1 to 1 | > 10 | 
12 | C[C@H](NC(=O)c1cccnc1NCc1ccc(-c2ccc3ncnc(N)c3c2)s1)c1ccc(F)cc1F [Example 3.61, (S)-2-(((5-(4-aminoquinazolin-6-yl)thiophen-2-yl)methyl)amino)-N-(1-(2,4-difluorophenyl)ethyl) nicotinamide (TFA salt)] |  |  | 0.1 to 1 | > 10 | 
13 | Nc1ncnc2ccc(-c3ccc(CNc4nccnc4C(=O)NCc4cc(F)c(F)c(F)c4)s3)cc12 [Example 3.71, 3-({[5-(4-aminoquinazolin-6-yl)thiophen-2-yl]methyl}amino)-N-(3,4,5-trifluorobenzyl)pyrazine-2-carboxamide (TFA salt)] |  |  | < 0.1 | < 1 | 
14 | C[C@H](COc1ccc2c(c1)NC(=O)/C2=C\c1cnc[nH]1)Nc1ncccc1C(=O)NCc1ccc(F)c(F)c1 [Example 24, (R,Z)-2-(1-(3-((1H-imidazol-5-yl)methylene)-2-oxoindolin-6-yloxy)propan-2-ylamino)-N-(3,4-difluorobenzyl)nicotinamide] |  |  | < 0.1 | 1 to 10 | 
15 | O=C(NCc1ccc(F)c(F)c1)c1cccnc1NCc1ccc(-c2cnc3[nH]ncc3c2)s1 [Example 2.32, 2-(((5-(1H-pyrazolo[3,4-b]pyridin-5-yl)thiophen-2-yl)methyl)amino)-N-(3,4-difluorobenzyl) nicotinamide] |  |  | < 0.1 | 1 to 10 | 
16 | C[C@H](NC(=O)c1cc(C#N)cnc1NCc1ccc(-c2cnc(NCCCN(C)C)cn2)cc1)c1ccc(F)cc1 [Example 225, 5-Cyano-2-{4-[5-(3-dimethylamino-propylamino)-pyrazin-2-yl]-benzylamino}-N-[(S)-1-(4-fluoro-phenyl)-ethyl]-nicotinamide] | > 5 | > 10 |  |  | 
17 | Cc1cc(F)ccc1NC(=O)c1cc(C(F)(F)F)cnc1NCc1ccc(-c2cnc3[nH]nc(N)c3c2)cc1 [Example 295, 2-(4-(3-amino-1H-pyrazolo [3,4-b]pyridin-5-yl)benzylamino)-N-(4-fluoro-2-methylphenyl)-5-(trifluoromethyl)nicotinamide] | < 0.1 | < 1 |  |  | 
18 | C[C@H](NC(=O)c1nc(C#N)cnc1NCc1ccc(-c2ccc(N)nn2)cc1)c1ccc(F)c(F)c1 [Example 409, (S)-3-(4-(6-aminopyridazin-3-yl)benzylamino)-6-cyano-N-(1-(3,4-difluorophenyl)ethyl)pyrazine-2-carboxamide] | < 0.1 | 1 to 10 |  |  | 
19 | C[C@H](NC(=O)c1cc(C#N)cnc1N[C@H](CC(=O)N(C)C)c1ccc(-c2c[nH]c3ncnc(N)c23)cc1)c1ccc(F)cc1 [Example 48, 2-((R)-1-(4-(4 - amino-7H-pyrrolo[2,3-d]pyrimidin-5-yl)phenyl)-3-(dimethylamino)-3-oxopropylamino)-5-cyano-N-((S)-1-(4-fluorophenyl)ethyl)nicotinamide] | 0.1 to 1 |  |  |  | EC50 ([1]; PC-3, 2 h, inhibition of P308 Akt in PC-3 cells using MSD): 1 to 10 µM
20 | Cn1cc(-c2ccc(CNc3ncc(C(F)(F)F)cc3C(=O)Nc3ccc(F)cc3)cn2)c2c(N)ncnc21 [Example 56, 2-(((6-(4-amino-7-methyl-7H-pyrrolo[2,3-d]pyrimidin-5-yl)pyridin-3-yl)methyl)amino)-N-(4-fluorophenyl)-5-(trifluoromethyl)nicotinamide] | < 0.1 | < 1 |  |  | 
21 | Nc1n[nH]c2ncc(-c3ccc(CNc4ncc(C(F)(F)F)cc4C(=O)NCc4cccc(Cl)c4)cc3)cc12 [Example 281, 2-(4-(3-amino-1H-pyrazolo [3,4-b]pyridin-5-yl)benzylamino)-N-(3-chlorobenzyl)-5-(trifluoromethyl)nicotinamide] | < 0.1 | < 1 |  |  | 
22 | Nc1ncc(-c2ccc(CNc3ncc(C(F)(F)F)cc3C(=O)Nc3ccc(F)cc3)cc2)nc1N1CCNCC1 [Example 193, 2-[4-(3′-Amino-3,4,5,6-tetrahydro-2H-[1,2′]bipyrazinyl-6′-yl)-benzylamino]-N-(4-fluoro-phenyl)-5-trifluoromethyl-nicotinamide] | < 0.1 | 1 to 10 |  |  | 
23 | Cc1cnc2c3cc(-c4ccc(CNc5ncccc5C(=O)N[C@@H](C)c5ccc(F)c(F)c5)s4)ccc3ncn12 [Example 49, (S)-N-(1-(3,4-difluorophenyl)ethyl)-2-((5-(3-methyl-imidazo[1,2-c]quinazolin-9-yl)thiophen-2-ylmethyl)amino) nicotinamide] | < 0.1 | > 10 |  |  | 
24 | C[C@H](NC(=O)c1cc(C#N)cnc1N[C@H](C)c1ccc(-c2c[nH]c3ncnc(N)c23)cc1)c1ccc(F)cc1 [Example 432, 2-{(R)-1-[4-(4-Amino-7H-pyrrolo[2,3-d]pyrimidin-5-yl)-phenyl]-ethylamino}-5-cyano-N-[(S)-1-(4-fluoro-phenyl)-ethyl]-nicotinamide] | < 0.1 | < 1 |  |  | 
25 | N#Cc1cnc(NCc2ccc(-c3c[nH]c4ncnc(N)c34)cc2)c(-c2nccs2)c1 [Example 352] | < 0.1 | > 10 |  |  | 
26 | CS(=O)(=O)Nc1cnc(NCc2ccc(-c3ccc4ncnc(N)c4c3)s2)c(C(=O)NCc2ccc(F)c(F)c2)c1 [Ex. 8.6.1, 2-({[5-(4-aminoquinazolin-6-yl)thiophen-2-yl]methyl}amino)-N-(3,4-difluorobenzyl)-5-[(methylsulfonyl)amino]pyridine-3-carboxamide] |  |  | < 0.1 | < 1 | 
27 | CN(Cc1ccc(F)c(F)c1)C(=O)c1cccnc1NCc1ccc(-c2ccc3ncnc(N)c3c2)s1 [Example 3.13, 2-({[5-(4-aminoquinazolin-6-yl)thiophen-2-yl]methyl}amino)-N-(3,4-difluorobenzyl)-N-methylpyridine-3-carboxamide (TFA salt)] |  |  | 0.1 to 1 | > 10 | 
